Structures can show the parent of a compound that is named as a salt.
Legend:
[1] = system: Iron-induced Lipid Peroxidation in Rat Brain Homogenates; assay: Assay of lipid peroxidation (TBA method); type: biochemical, Wistar rats; conditions: for Inhibition (%) 0.005 mM / Inhibition (%) 0.05 mM / Inhibition % (0.5 mM) / Inhibition (%) 5 mM: Mean ± S.E., n = 4; for Inhibition (%) 0.005 mM / efficiency in lipid peroxidation inhibition versus ascorbic acid, (+)-α-tocopherol and mitoxantrone (in words): 0.005 mM; for Inhibition % (0.5 mM) / inhibitory effect on lipid peroxidation compared to ascorbic acid, (+)-α-tocopherol and mitoxantrone (in words): 0.5 mM
Protocol: The inhibitory effect on lipid peroxidation of these compounds were evaluated with rat brain phospholipid liposomes which provide an ideal model system for lipid peroxidation studies by Teng C. M., et. al., Eur. J. Pharmacol., vol. 303, pp. 129-139 (1996).
Assay of Lipid Peroxidation. Rat brain homogenate was prepared from the brains of freshly killed Wistar rats and its peroxidation in the presence of iron ions was measured by the thiobarbituric acid (TBA) method as described. The extent of lipid peroxidation was estimated as thiobarbituric acid-reactive substances and was read at 532 nm in a spectrophotometer (Shimadzu UV-160).

[2] = system: Chinese Hamster Ovary (CHO) Cells; assay: Cytotoxic activity test (cell proliferation assay), CHO cells as normal cells; type: cell-based; conditions: for IC50: Cricetulus griseus, 50% inhibition of cellular growth following 48 h of drug exposure; for toxicity in CHO compared with mitoxantrone (in words): versus mitoxantrone
Source text: (§1) We evaluated the ability of the compounds to inhibit the growth of human oral epidermoid carcinoma cells (KB cell line), human cervical carcinoma cells of ME 180 (GBM8401) and Chinese hamster ovary (CHO) cells as normal cells, and lipid peroxidation in model membranes, respectively.
(§2) Cytotoxic Activity Test. Human oral epidermoid carcinoma cells (KB cell line), human cervical carcinoma cells of ME 180 (GBM8401) and Chinese hamster ovary (CHO) cells grown in plateau phase were cultivated, and the cell proliferation assay was performed as previously described. Inhibition of cellular growth was calculated by comparison of the mean values of the test compound (N=3) with the control (N=6-8) activity: (1-test compound/control)×100.

[3] = system: Human Cervical Carcinoma Cells of ME 180 (GBM8401); assay: Cytotoxic activity test (cell proliferation assay), GBM8401 cells; type: cell-based; conditions: for IC50: Homo sapiens, ME-180, GBM8401 cells, 50% inhibition of cellular growth following 48 h of drug exposure
Source text: as §1, §2

[4] = system: Human Oral Epidermoid Carcinoma Cells (KB cell line); assay: Cytotoxic activity test (cell proliferation assay), KB cells; type: cell-based; conditions: 50% inhibition of cellular growth following 48 h of drug exposure
Source text: as §1, §2

SMILES | Inhibition (%) 0.005 mM ([1]; Table 3) [%] | Inhibition (%) 0.05 mM ([1]; Table 3) [%] | Inhibition % (0.5 mM) ([1]; Table 2) [%] | Inhibition % (0.5 mM) ([1]; Table 3) [%] | Inhibition (%) 5 mM ([1]; Table 3) [%] | IC50 [2] [µM] | toxicity in CHO compared with mitoxantrone (in words) [2] | IC50 [3] [µM] | IC50 [4] [µM] | cytotoxicity on GBM in vitro assay (in words) [3] | efficiency in lipid peroxidation inhibition versus ascorbic acid, (+)-α-tocopherol and mitoxantrone (in words) [1] | inhibitory effect on lipid peroxidation compared to ascorbic acid, (+)-α-tocopherol and mitoxantrone (in words) [1]
Cc1c(C)c2c(c(C)c1O)CC[C@@](C)(CCC[C@H](C)CCC[C@H](C)CCCC(C)C)O2 [(+)-α-tocopherol, reference compound] | 0 | 0 | 53 ± 4.4 | 53 ± 1.7 | 100 |  |  |  |  |  |  | 
COC1c2cccc(Cl)c2C(=O)c2cccc(Cl)c21 (centres unmarked) [Compound 3a, 10-Methoxy 1,5-dichloro-9(10 H)-anthracenone] |  |  | 7 ± 0.1 |  |  | 2.9 | more toxic in CHO than mitoxantrone | 23.5 | 8.8 |  |  | 
CCOC1c2cccc(Cl)c2C(=O)c2cccc(Cl)c21 (centres unmarked) [Compound 3b, 10-Ethoxy 1,5-dichloro-9(10 H)-anthracenone] |  |  | 7 ± 0.1 |  |  | 5.8 |  | 21.8 | 6.1 |  |  | 
CCCOC1c2cccc(Cl)c2C(=O)c2cccc(Cl)c21 (centres unmarked) [Compound 3c, 10-Propyloxy 1,5-dichloro-9(10 H)-anthracenone] |  |  | 29 ± 2.5 |  |  | 42 |  | 11.1 | 1.8 |  |  | 
CC(C)OC1c2cccc(Cl)c2C(=O)c2cccc(Cl)c21 (centres unmarked) [Compound 3d, 10-(2-Propyloxy) 1,5-dichloro-9(10 H)-anthracenone] |  |  | 13 ± 1.3 |  |  | 15.2 |  | 65.4 | 21.8 |  |  | 
CCCCOC1c2cccc(Cl)c2C(=O)c2cccc(Cl)c21 (centres unmarked) [Compound 3e, 10-(Butyloxy) 1,5-dichloro-9(10 H)-anthracenone] |  |  | 31 ± 3.7 |  |  | 8 |  | 29.5 | 29.5 |  |  | 
CC(C)COC1c2cccc(Cl)c2C(=O)c2cccc(Cl)c21 (centres unmarked) [Compound 3f, 10-(iso-Butyloxy) 1,5-dichloro-9(10 H)-anthracenone] |  |  | 38 ± 3.1 |  |  | 20.1 |  | 43.2 | 14.7 |  |  | 
O=C1c2cccc(Cl)c2C(OCc2ccccc2)c2cccc(Cl)c21 (centres unmarked) [Compound 3g, 10-Benzyloxy 1,5-dichloro-9(10 H)-anthracenone] |  |  | 16 ± 1.5 |  |  | 24.7 |  | 18.5 | 93.4 |  |  | 
CCN(CC)C1c2cccc(Cl)c2C(=O)c2cccc(Cl)c21 (centres unmarked) [Compound 4a, 10-Diethylamino 1,5-dichloro-9(10 H)-anthracenone] |  |  | 12 ± 1.4 |  |  | 15 |  | 7.5 | 17.2 | high cytotoxicity and significant activity |  | 
Cc1cccc(NC2c3cccc(Cl)c3C(=O)c3cccc(Cl)c32)c1 (centres unmarked) [Compound 4b, 10-(m-Toluidino) 1,5-dichloro-9(10 H)-anthracenone] | 23 ± 2.4 | 92 ± 4.1 | 100 | 100 | 100 | 6.2 |  | 11.2 | 9.5 |  | significantly more efficient | better inhibitory effect
Cc1ccccc1NC1c2cccc(Cl)c2C(=O)c2cccc(Cl)c21 (centres unmarked) [Compound 4c, 10-(o-Toluidino) 1,5-dichloro-9(10 H)-anthracenone] |  |  | 73 ± 3.5 |  |  | 3.8 | more toxic in CHO than mitoxantrone | 2.4 | 3.4 | high cytotoxicity and significant activity |  | 
Cc1ccc(NC2c3cccc(Cl)c3C(=O)c3cccc(Cl)c32)cc1 (centres unmarked) [Compound 4d, 10-(p-Toluidino) 1,5-dichloro-9(10 H)-anthracenone] | 33 ± 2.7 | 94 ± 3.5 | 100 | 100 | 100 | 3 | more toxic in CHO than mitoxantrone | 4.6 | 11.3 | high cytotoxicity and significant activity | significantly more efficient | better inhibitory effect
O=C1O[C@H]([C@@H](O)CO)C(O)=C1O [ascorbic acid, reference compound] | 7 ± 0.5 | 22 ± 2.2 | 87 ± 3.1 | 87 ± 2.5 | 100 |  |  |  |  |  |  | 
O=C1c2c(O)ccc(O)c2C(=O)c2c(NCCNCCO)ccc(NCCNCCO)c21 [mitoxantrone-HCl, reference compound] | 10 ± 1.1 | 52 ± 3.5 | 64 ± 2.8 | 64 ± 2.1 | 100 | 4 |  | 1.5 | 1.7 |  |  | 

From US6596774B1, “Synthesis, lipid peroxidation and cytotoxic evaluation of 10-substituted 1,5-dichloro-9(10H)-anthracenone derivatives” (priority 2001, dated 2003)
